In patent publication US7973219B2, “Method for producing transgenic plants resistant to weed control compounds which disrupt the porphyrin pathways of plants” (Sumitomo Chemical Company, Limited, priority 1998, dated 2011):
Like-named read-outs stand apart in the source and are kept apart here.

Test system: E. coli BT3/pACYCSP+pTV118N strain
Experiment: Growth of E. coli BT3/pACYCSP+pTV118N (vector control) with herbicidal compound
Assay type: cell-based
Conditions: Escherichia coli, 18 h, 18 hours culture
From the text: According to the description of Gibson, L. C. D. et al., Proc. Natl. Acad. Sci. USA, 92; p 1941 (1995), the DNA fragment containing bchH gene prepared in Example 1 was digested with the restriction enzymes NdeI and BglII. The resultant DNA fragment was inserted between NdeI restriction site and BamHI restriction site of expression vector pET11a (manufactured by Stratagene) to obtain plasmid pETBCH (FIG. 1). This plasmid pETBCH was introduced into E. coli BL21(DE3) strain competent cells (manufactured by Stratagene) according to the manual attached to the competent cells to obtain E. coli BL21(DE3)/pETBCH strain. The strain was inoculated into 1.5 ml LB liquid culture medium (1% tryptone, 0.5% yeast extract, 0.5% NaCl) containing 100 μg/ml ampicillin in a tube (14×10 mm), and the tube was covered with aluminum foil (hereinafter referred to as dark conditions), cultured with shaking at 37° C. under light of fluorescent lamp (about 8000 lux). When the absorbance at 600 nm of the liquid culture medium became about 0.6, isopropyl β-D-thiogalactopyranoside (IPTG) was added to the liquid culture medium so that the final concentration was 0.4 mM, and the culture was continued for about additional 20 hours. […] In contrast to this, when E. coli BL21(DE3)/pETBCH strain was cultured according to the same manner (with IPTG) except that the tube was not covered with aluminum foil (hereinafter referred to as light conditions), E. coli grew and turned red as above.
Plasmids pTVBCH and pTV118N respectively were introduced into E. coli BT3/pACYCSP strain prepared in Example 3 according to the method described in Hanahan, D. J., Mol. Biol., 166; p 557 (1983). The resultant E. coli were cultured in YPT medium containing 100 μg/ml ampicillin, 15 μg/ml chloramphenicol and 10 μg/ml kanamycin to obtain E. coli BT3/pACYCSP+pTVBCH strain bearing plasmids pACYCSP and pTVBCH, and E. coli BT3/pACYCSP+pTV118N strain bearing plasmids pACYCSP and pTV118N.
These strains were inoculated into YPT medium containing 10 or 1 ppm of the PPO inhibitory-type herbicidal compound represented by the above Structure 8, 100 μg/ml ampicillin, 15 μg/ml chloramphenicol, 10 μg/ml kanamycin, 10 μg/ml hemin and 50 μg/ml aminolevulinic acid, cultured under dark conditions or light conditions according to the same manner as in Example 2. Then, 18 hours after initiation of culture, the absorbance of the liquid culture medium was measured at 600 nm. By taking the absorbance of the medium without the herbicidal compound as 1, the relative value of the absorbance of the medium containing the herbicidal compound was calculated.
Further, these strains were inoculated into YPT medium containing PPO inhibitory-type herbicidal compounds represented by the above Structures 1, 14, 15, 18-22, 29, 32, 33, 34 and 36, respectively, 100 μg/ml ampicillin, 15 μg/ml chloramphenicol, 10 μg/ml kanamycin, 10 μg/ml hemin and 50 μg/ml aminolevulinic acid, cultured under dark conditions or light conditions similar to the Example 2. Then, 18 hours after initiation of culture, the absorbance of liquid culture medium was measured at 600 nm. By taking the absorbance of the medium without the herbicidal compound as 1, the relative value of the absorbance of the medium containing the herbicidal compound was calculated.
Plasmids pTVGMP and pTV118N prepared in Example 11 were introduced into E. coli BT3/pACYCSP strain prepared in Example 3 respectively according to the method described in Flanahan, D. J., Mol. Biol., 166; p 557 (1983). E. coli BT3/pACYCSP+pTVGMP strain bearing plasmids pACYCSP and pTVGMP, and E. coli BT3/pACYCSP+pTV118N strain bearing plasmids pACYCSP and pTV118N were obtained by culturing the above strains in YPT medium containing 100 μg/ml ampicillin, 15 μg/ml chloramphenicol and 10 μg/ml kanamycin. […]

[1] = read-out: Relative absorbance, in the dark, Table 2
[2] = read-out: Relative absorbance, in the dark, Table 7 (Example 12)
[3] = read-out: Relative absorbance, in the dark, Table 9 (Example 17)
[4] = read-out: Relative absorbance, in the dark, Table 11 (Example 20)
[5] = read-out: Relative absorbance, in the dark, Table 13 (Example 23)
[6] = read-out: Relative absorbance, in the dark, Table 14 (Example 27)
[7] = read-out: Relative absorbance, in the light, Table 2
[8] = read-out: Relative absorbance, in the light, Table 7 (Example 12)
[9] = read-out: Relative absorbance, in the light, Table 9 (Example 17)
[10] = read-out: Relative absorbance, in the light, Table 11 (Example 20)
[11] = read-out: Relative absorbance, in the light, Table 13 (Example 23)
[12] = read-out: Relative absorbance, in the light, Table 14 (Example 27)

`C#CCOc1cc(N2C(=O)C3=C(CCCC3)C2=O)c(F)cc1Cl` [Structure 8] showed an activity at 1 ppm [1] of 77%, an activity at 1 ppm [2] of 91% and an activity at 1 ppm [3] of 91%. The activity at 1 ppm [4] was 91%, the activity at 1 ppm [5] was 91% and the activity at 1 ppm [6] was 98%. It also gave an activity at 1 ppm (read-out: Relative absorbance, in the dark, Table 15 (Example 31)) of 93%, an activity at 1 ppm (read-out: Relative absorbance, in the dark, Table 16 (Example 31)) of 81% and an activity at 10 ppm [1] of 68%. It also gave an activity at 10 ppm [2] of 89%, an activity at 10 ppm [3] of 80% and an activity at 10 ppm [4] of 80%. It also gave an activity at 10 ppm [5] of 81%, an activity at 10 ppm [6] of 96% and an activity at 1 ppm [7] of 31%. It also gave an activity at 1 ppm [8] of 9%, an activity at 1 ppm [9] of 24% and an activity at 1 ppm [10] of 24%. The activity at 1 ppm [11] was 8%, the activity at 1 ppm [12] was 16% and the activity at 1 ppm (read-out: Relative absorbance, in the light, Table 15 (Example 31)) was 7%. For the same molecule, the activity at 1 ppm (read-out: Relative absorbance, in the light, Table 16 (Example 31)) was 15%, the activity at 10 ppm [7] was 18% and the activity at 10 ppm [8] was 5%. For the same molecule, the activity at 10 ppm [9] was 12%, the activity at 10 ppm [10] was 12% and the activity at 10 ppm [11] was 6%. It also gave an activity at 10 ppm [12] of 6%.
